Entries after “also recorded” stand apart in the source; their conditions may differ.
Assays:
[1] = tested on: OT-1 transgenic splenocytes; test: In vitro stimulation of OT-1 splenocytes with peptide antigen in the presence of TLR agonists, surface markers by flow cytometry; assay type: cell-based, mice; design: key to 4-1BB / PD-1 / LAG3 / CD160 / CD244.2 / BTLA / VISTA: “+” means increase; “−” means decrease; “=” means no change; “=/+” or “=/−” means the change is there but not significant; “=/+” or “=/−” means the change is there but not significant; conditions: for 4-1BB / LAG3 / PD-1 / BTLA / CD160 / CD244.2 / VISTA: OT-1 splenocytes, high affinity antigen plus TLR agonist, versus antigen alone; for PD-1 expression on activated T cells / T cell activation measured by 4-1BB / levels of tested checkpoint markers (BTLA, VISTA, CD160, CD244.2): in words; for PD-1 expression on activated T cells: SIINFEKL plus TLR agonist versus antigen alone, up to 4 days; for T cell activation measured by 4-1BB: SIINFEKL plus TLR agonist; for levels of tested checkpoint markers (BTLA, VISTA, CD160, CD244.2): high affinity antigen plus TLR agonist versus no TLR agonist
Description: T cell activation was measured by the levels of marker 4-1BB (a/k/a CD137, a member of the TNF receptor superfamily). The level of PD-1 expression was also assessed in these cells (FIG. 1B).
There was no difference in LAG3 expression between the control cells and cells treated with any of the assayed TLR agonists.
OT-1 transgenic splenocytes were treated with high affinity antigen in combination with Pam3CSK4 (TLR1 and 2 agonist), Gardiquimod (TLR7 agonist) or no TLR agonist and the levels of different checkpoint markers or T cell stimulation (measured by 4-1BB, FIG. 5) were assayed. The checkpoint markers BTLA (FIG. 6), VISTA (FIG. 7), CD160 (FIG. 8) and CD244.2 (FIG. 9) were assayed.
TLR stimulation at the time of T-cell activation in vitro affects expression of PD-1. Given that CpG-rich DNA is a TLR9 agonist and Lm is a TLR2 agonist, we questioned whether TLR stimulation with different ligands could similarly affect expression of different T-cell checkpoint inhibitors. […] OT-1 splenocytes were stimulated in vitro with peptides of different affinity for MHC class I (high-affinity SIINFEKL peptide (SEQ ID NO:1, OVA), moderate-affinity SIINTEKL peptide (SEQ ID NO:2, FT), or low-affinity SIINFEKP peptide (SEQ ID NO:7, LP)), alone or in the presence of different TLR ligands (TLR 1/2 (Pam3CSK4), TLR 3 (Poly I:C), TLR 4 (MPLAs), TLR 7 (Gardiquimod), TLR 7/8 (R848), or TLR 9 (ODN1826)). […] Similarly, LAG-3 expression increased by day 3, but was not affected by the presence of different TLR ligands. […] This reduction in PD-1 expression was observed most with the high-affinity SIINFEKL (SEQ ID NO:1) epitope, but also observed following activation with lower affinity epitopes. Given these findings, we evaluated expression of multiple other T-cell checkpoint molecules following T-cell activation in the presence of TLR ligands. […] Cytotoxic T-lymphocyte-associated protein 4 (CTLA-4) expression, however, was increased in the presence of TLR1/2 agonist. Similar results were found activating OT-1 cells with the lower affinity FT (SIINTEKL peptide (SEQ ID NO:2)), LP (SIINFEKP peptide (SEQ ID NO:7), or LY (SIINFEKY, SEQ ID NO:8) epitopes (FIG. 19).
In vitro T-cell stimulation: Spleens were collected from OT-1 mice, processed through a mesh screen, and splenocytes were isolated by centrifugation after red blood cell osmotic lysis with ammonium chloride/[…] lysis buffer (0.15 M NH4Cl, 10 mM KHCO3, 0.1 mM EDTA). Splenocytes were cultured at 2×10^6/mL in RPMI 1640 medium supplemented with L-glutamine, 10% fetal calf serum (FCS), 200 U/mL penicillin/streptomycin, 1% sodium pyruvate, 1% HEPES, 50 μM β-MeOH, and 2 μg/mL of the designated peptide. TLR agonists were all purchased from InvivoGen (San Diego, CA) and added one hour before peptides at the following optimal concentrations based on preliminary studies and previously reported results: 300 ng/ml Pam3CSK4, 10 μg/mL Poly(I:C) HMW, 10 μg/ml MPLAs, 3 μg/ml Gardiquimod, 10 μg/ml R848, 5 μM ODN 1826. At the time points indicated, cells were stained, fixed for 15 min at 4° C. in cytofix (BD Biosciences (BD), San Jose, CA; 554655), and frozen in FCS+10% DMSO. After all time points were collected, cells from all times were thawed, rinsed and resuspended in PBS+3% FCS+1 mM EDTA and analyzed by flow cytometry. Cells were stained for 30 min at 4° C. in a 1:4 dilution of brilliant stain buffer (BD 563794) in PBS+3% FCS+1 mM EDTA. In order to assess co-stimulation, blocking antibodies for CD80 (0.6 μg/mL), CD86 (0.25 μg/mL) or OX40L (0.6 μg/mL) were added 1 hour prior to antigen.

[2] = tested on: SSX2-expressing sarcoma cells; test: SSX2 tumor treatment study: DNA vaccine with or without TLR agonist; assay type: in vivo, mice; conditions: for anti-tumor efficacy / tumor growth suppression in combination with DNA vaccine: TLR agonist with DNA vaccine versus vaccine alone; for effect on tumor growth of TLR agonist alone (with vector DNA): with control vector pTVG4
Description: Mice expressing human HLA-A2 were injected subcutaneously with SSX2-expressing sarcoma cells. Starting one day after inoculation, and every 7 days thereafter, mice were vaccinated with a DNA vaccine encoding SSX2, an optimized version of SSX2 with increased affinity for HLA-A2 (pTVG-SSX2 opt) or negative control vector pTVG4. All were done with or without TLR1/2 agonist or TLR7 agonist mixed with the DNA. A solution of DNA and a solution of TLR agonist in PBS were made and mixed together prior to administration. Note that TLR stimulation via a TLR agonist improves the efficacy of pTVG-SSX2 opt to a greater extent than pTVG-SSX2.
Using this model, HLA-A2-expressing transgenic mice were implanted with synovial sarcoma, X breakpoint 2 (SSX-2)-expressing tumor cells. […], mice were then immunized weekly with control vector (pTVG4), DNA encoding native SSX2 (pTVG-SSX2), or DNA encoding high affinity HLA-A2 epitopes (pTVG-SSX2 opt) in the presence or absence of Pam3CSK4 (TLR1/2) or Gardiquimod (TLR7) agonist.
SSX2 tumor treatment studies: 6- to 8-week old HHDII-DR1 mice were inoculated with 10^5 A2/Sarc-SSX2 cells administered subcutaneously, and then immunized intradermally with DNA vaccines weekly beginning one day after tumor implantation, as previously described (42). TLR agonists or vehicle were co-administered with the vaccine intradermally, and tumor volumes were measured over time using calipers, as described above.

Row | Compound | 4-1BB [1] | LAG3 [1] | PD-1 [1] | PD-1 expression on activated T cells [1] | PD-1 expression on activated T cells ([1]; listed as TLR3) | anti-tumor efficacy / tumor growth suppression in combination with DNA vaccine [2] | effect on tumor growth of TLR agonist alone (with vector DNA) [2] | CTLA-4 expression ([1]; OT-1 T cells activated with SIINFEKL in the presence of TLR ligand) | BTLA [1] | CD160 [1] | CD244.2 [1] | VISTA [1] | T cell activation measured by 4-1BB [1] | levels of tested checkpoint markers (BTLA, VISTA, CD160, CD244.2) [1] | PD-1 expression on activated T cells ([1]; listed as TLR4)
1 | Poly(I:C) [PolyI:C] | = | =/+ | =/− | did not significantly reduce | did not lead to decreased PD-1 expression |  |  |  |  |  |  |  |  |  | 
2 | Pam3CSK4 | = | = | − | expressed low levels of PD-1; also recorded: significantly reduced |  | significantly increased; also recorded: improved the tumor growth suppression | modest effects | increased | =/− | − | = | − | activated | did not affect | 
3 | CCNCc1nc2c(N)nc3ccccc3c2n1CC(C)(C)O [Gardiquimod] | = | = | − | expressed low levels of PD-1; also recorded: significantly reduced |  | significantly increased; also recorded: improved the tumor growth suppression | modest effects |  | =/− | − | =/− | = | activated | did not affect | 
4 | Monophosphoryl Lipid A [MPLAs] | = | = | = | did not significantly reduce |  |  |  |  |  |  |  |  |  |  | did not lead to PD-1 downregulation

From patent US20240390487A1, “TLR AGONISTS FOR REDUCING ACTIVATION-INDUCED PD-1 EXPRESSION ON T CELLS AND METHODS OF USE” (WISCONSIN ALUMNI RESEARCH FOUNDATION, priority 2016, published 2024)
